Assay [1] has as its target T1, Retinoic acid receptor RXR-alpha (Homo sapiens, UniProt P19793).
T1 sequence (P19793 whole entry): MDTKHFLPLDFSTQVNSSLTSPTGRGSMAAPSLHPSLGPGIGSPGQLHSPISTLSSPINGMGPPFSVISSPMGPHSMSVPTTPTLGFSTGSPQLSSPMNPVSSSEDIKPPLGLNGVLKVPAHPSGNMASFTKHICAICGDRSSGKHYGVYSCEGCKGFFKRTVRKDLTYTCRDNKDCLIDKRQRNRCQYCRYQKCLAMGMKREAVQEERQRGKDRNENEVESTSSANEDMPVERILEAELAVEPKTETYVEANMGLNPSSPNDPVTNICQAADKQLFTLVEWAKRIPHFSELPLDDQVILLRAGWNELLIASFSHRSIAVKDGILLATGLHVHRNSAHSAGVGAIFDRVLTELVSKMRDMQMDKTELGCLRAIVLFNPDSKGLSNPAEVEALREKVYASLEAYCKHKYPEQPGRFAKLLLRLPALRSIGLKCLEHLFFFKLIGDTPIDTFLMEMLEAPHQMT
The assay can be described thus: Competitive antagonist activity at human RXRA/RXRA expressed in African green monkey COS7 cells assessed as reduction in bexarotene-induced receptor activation by RXRE-dependent luciferase reporter gene assay. Type of assay: cell-based. The conditions noted are these: read-out: pA2 (converted). (A reporter such as luciferase makes a cellular process visible.)

The next assay has as its target RXR alpha/PPAR gamma (Homo sapiens, UniProt P19793). The assay can be described thus: Competitive antagonist activity at human PPAR-gamma/RXRA expressed in African green monkey COS7 cells assessed as reduction in bexarotene-induced receptor activation by RXRE-dependent luciferase reporter gene assay. The conditions noted are these: read-out: pA2 (converted). Type of assay: cell-based.

Assay [2] has as its target T1, Retinoic acid receptor RXR-alpha. The assay can be described thus: Displacement of [3H]-9-cis retinoic acid from recombinant human RXR-alpha LBD by liquid scintillation counting based competitive ligand binding assay. Background: Loss of bound radioactivity is the signal in a displacement assay; it reports binding, not function.
Assay [3] shares this target. The assay can be described thus: Binding affinity to human RXR-alpha by ITC analysis.
For assay [4] the target is unchanged. The assay can be described thus: Binding affinity to human RXR-alpha LBD incubated for 2 hrs by tryptophan fluorescence quenching assay.
The target of assay [5] is T2, Retinoic acid receptor RXR-alpha/oxysterols receptor LXR-alpha (Homo sapiens, UniProt P19793).
T2 sequence (P19793 whole entry): T1 sequence (P19793 whole entry)
T2 sequence (Q13133 whole entry): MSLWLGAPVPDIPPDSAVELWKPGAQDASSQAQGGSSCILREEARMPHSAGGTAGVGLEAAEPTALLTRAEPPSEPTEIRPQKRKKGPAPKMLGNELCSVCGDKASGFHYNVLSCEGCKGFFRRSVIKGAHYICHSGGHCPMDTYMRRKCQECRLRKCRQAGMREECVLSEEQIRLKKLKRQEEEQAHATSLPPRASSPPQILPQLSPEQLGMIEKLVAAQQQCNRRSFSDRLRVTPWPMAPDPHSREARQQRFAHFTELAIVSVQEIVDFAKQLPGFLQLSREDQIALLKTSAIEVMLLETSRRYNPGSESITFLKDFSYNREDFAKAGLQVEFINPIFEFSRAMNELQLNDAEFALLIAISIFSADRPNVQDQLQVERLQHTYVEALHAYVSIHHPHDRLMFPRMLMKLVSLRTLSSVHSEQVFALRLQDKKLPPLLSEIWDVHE
In words: Competitive antagonist activity at human LXR-alpha/RXRA expressed in African green monkey COS7 cells assessed as reduction in bexarotene-induced receptor activation by RXRE-dependent luciferase reporter gene assay. The conditions noted are these: read-out: pA2 (converted). It counts as cell-based.

pKd, pKi: −log10 of the molar value.

RXR alpha/PPAR gamma, sequence (P37231 whole entry, one chain of several): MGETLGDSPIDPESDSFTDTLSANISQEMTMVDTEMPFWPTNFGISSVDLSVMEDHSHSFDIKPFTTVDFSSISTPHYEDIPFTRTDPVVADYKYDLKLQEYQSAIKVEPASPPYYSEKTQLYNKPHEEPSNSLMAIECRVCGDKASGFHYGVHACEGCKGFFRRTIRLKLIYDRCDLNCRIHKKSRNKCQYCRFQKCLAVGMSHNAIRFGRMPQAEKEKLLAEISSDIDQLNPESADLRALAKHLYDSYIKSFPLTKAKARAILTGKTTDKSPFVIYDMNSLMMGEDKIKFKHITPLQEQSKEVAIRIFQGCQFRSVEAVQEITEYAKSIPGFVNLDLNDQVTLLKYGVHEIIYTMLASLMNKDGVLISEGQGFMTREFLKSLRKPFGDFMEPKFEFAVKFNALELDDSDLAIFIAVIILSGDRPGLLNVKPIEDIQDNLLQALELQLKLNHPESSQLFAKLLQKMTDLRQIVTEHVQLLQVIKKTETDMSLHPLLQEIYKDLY

As a reminder, the pKi is the negative decadic logarithm of the Ki, by convention in mol/L. The term pKd denotes the negative decadic logarithm of the Kd, by convention in mol/L. Regarding `CCCCCCOc1cc2c(cc1N(C)c1ncc(C(=O)O)cn1)C(C)(C)CCC2(C)C`, the Kb is 63.1 nM in assay [1], 10 nM at RXR alpha/PPAR gamma and 302 nM in assay [5]. The pKi in assay [2] is 5.87. Besides, the pKd in assay [3] was 5.87; in assay [4] it was 6.59.

Values taken from ChEMBL document CHEMBL4765474, “Discovery of a "Gatekeeper" Antagonist that Blocks Entry Pathway to Retinoid X Receptors (RXRs) without Allosteric Ligand Inhibition in Permissive RXR Heterodimers” (J Med Chem, 2021).
